In patent US8088791B2, “Antibacterial agents” (Biots Scientific Management Pty Ltd, priority 2006, dated 2012):
Converted amounts (≈) assume the structure as drawn. Where two headings read alike, the source gives them in different places.

Key:
Bacillus subtilis 168CA = assay: Minimum Inhibitory Concentration (MIC) testing, broth microdilution, Bacillus subtilis; format: cell-based; settings: Bacillus subtilis 168CA; read-out: Bacillus subtilis MICs Activity
In short: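 Broth microdilution followed NCCLS M7-A5, in rich broth such as Mueller Hinton, inoculum at OD 0.09 diluted 1:100, compounds in 1.6% DMSO before inoculum. After 16–20 h at 37 °C, MIC was the lowest concentration without visible growth. Score A: ≦8 μg/ml, B: 16–64 μg/ml, C: >64 μg/ml.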

[1] = test system: Staphylococcus aureus ATCC29213; assay: Minimum Inhibitory Concentration (MIC) testing, broth microdilution, Staphylococcus aureus; format: cell-based; settings: Staphylococcus aureus ATCC29213; read-out: Staphylococcus aureus MICs Activity
In short: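 Broth microdilution per NCCLS M7-A5 in Mueller Hinton broth, with compound in 1.6% DMSO and inoculum at OD 0.09 diluted 1:100. Plates incubated 16–20 h at 37°C. MIC is the lowest concentration with no visible growth; scored A ≤8, B 16–64, C >64 μg/ml.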

[2] = test system: various bacterial species; assay: Minimum Inhibitory Concentration (MIC) testing, broth microdilution, other bacterial species; format: cell-based
Description: Compounds of this invention were tested for antimicrobial activity by susceptibility testing in liquid media. MICs for compounds against each strain were determined by a broth microdilution method according to the National Committee for Clinical Laboratory Standards (NCCLS) guidelines. (NCCLS. 2000. Methods for dilution antimicrobial susceptibility tests for bacteria that grow aerobically—fifth edition. Approved standard M7-A5. NCCLS, Wayne, Pa.)
Briefly, test compounds are prepared in 100 μl of 1.6% DMSO solution in multiwell plates. Several bacterial colonies from a freshly streaked plate are transferred to an appropriate rich broth, such as Mueller Hinton. The cell suspension is adjusted to an optical density of 0.09 and further diluted 1:100 with warm 2× broth. This cell suspension is dispensed into the wells containing compound solution so that the final volume is 200 μl. The plates are incubated overnight (16-20 hours) at 37° C. and turbidity is scored by eye and quantified spectrophotometrically. The MIC is defined as the lowest concentration inhibiting visible growth.
Some of the Examples were also tested for activity against other bacterial species. […] Activities were again scored as ‘A’ if the MIC was ≦8 micrograms/ml, ‘B’ if the MIC was 16 to 64 micrograms/ml and ‘C’ if the MIC was greater than 64 micrograms/ml.

Staphylococcus aureus = assay: mouse Staphylococcus aureus septicaemia model of infection; format: in vivo; settings: survival at day 7 of infected mice; single intraperitoneal dose of 100 mg/kg at 1 hour after intraperitoneal inoculation with a lethal dose of Staphylococcus aureus
Description: Some of the Examples were also tested for activity in a mouse Staphylococcus aureus septicaemia model of infection.

[3] = Bacillus cereus, ATCC14579, read-out: MIC Activity Bacillus cereus ATCC 14579
[4] = Staphylococcus saprophyticus, ATCC15305, read-out: MIC Activity Staphylococcus saprophyticus ATCC 15305
[5] = Staphylococcus epidermidis, ATCC12228, read-out: MIC Activity Staphylococcus epidermidis ATCC 12228
[6] = Staphylococcus haemolyticus, ATCC29970, read-out: MIC Activity Staphylococcus haemolyticus ATCC 29970

SMILES	MIC (Bacillus subtilis 168CA) [µg/mL]	MIC [1] [µg/mL]	melting point [°C]	MIC [2, 3] [µg/mL]	MIC [2, 4] [µg/mL]	Percent survival (Staphylococcus aureus) [%]	MIC [2, 5] [µg/mL]	MIC [2, 6] [µg/mL]
NC(=O)c1cccc(OCc2cccc(O)c2)c1 [Example 173, 3-[(3-Hydroxybenzyl)oxy]benzenecarboxamide]	> 64	> 64	122 to 123	–	–	–	–	–
CC1CC1COc1cccc(C(N)=O)c1 (stereo not drawn) [Example 169, 3-[(2-Methylcyclopropyl)methoxy]benzenecarboxamide]	> 64	> 64	119 to 121	–	–	–	–	–
N#CCOc1ccc(F)c(C(N)=O)c1F [Example 225, 3-(Cyanomethoxy)-2,6-difluorobenzenecarboxamide]	> 64	> 64	122 to 123	–	–	–	–	–
NC(=O)c1c(F)ccc(OCc2cc3cc(C(F)(F)F)ccc3s2)c1F [Example 208, 2,6-Difluoro-3-[5-(trifluoromethyl)-1-benzothiophen-2-yl]methoxybenzenecarboxamide]	< 8	< 8	150 to 152	< 8	< 8	–	–	–
NC(=O)c1c(F)ccc(OCc2ccc3sccc3c2)c1F [Example 201, 3-(1-Benzothiophen-5-ylmethoxy)-2,6-difluorobenzenecarboxamide]	< 8	16 to 64 (≈ 50.1 to 200 µM)	146 to 148	–	–	–	–	–
COC(=O)C=CCOc1ccc(F)c(C(N)=O)c1F [Example 179, Methyl 4-[3-(aminocarbonyl)-2,4-difluorophenoxy]-2-butenoate]	> 64	> 64	122 to 123	–	–	–	–	–
NC(=O)c1cccc(OCCCCC/C=C\c2ccsc2)c1 [Example 62, 3-{[(Z)-7-(3-Thienyl)-6-heptenyl]oxy}benzenecarboxamide]	< 8	< 8	71 to 73	–	–	–	–	–
CCCCOC(=O)CCCOc1ccc(F)c(C(N)=O)c1F [Example 181, Butyl 4-[3-(aminocarbonyl)-2,4-difluorophenoxy]butanoate]	< 8	16 to 64 (≈ 50.7 to 203 µM)	53 to 55	–	–	–	–	–
CCCCCCCCCOc1cc(C(N)=O)ccn1 [Example 94, 2-(Nonyloxy)isonicotinamide]	< 8	< 8	108 to 110	–	–	–	–	–
C#CCCCCCCCOc1cccc(C(N)=O)c1 [Example 65, 3-(8-Nonynyloxy)benzenecarboxamide]	< 8	< 8	82 to 83	–	–	–	–	–
CCc1cccc2sc(COc3ccc(F)c(C(N)=O)c3F)nc12 [Example 223, 3-[(4-Ethyl-1,3-benzothiazol-2-yl)methoxy]-2,6-difluorobenzenecarboxamide]	< 8	< 8	184 to 186	–	–	–	–	–
COc1ccc(-c2noc(COc3ccc(F)c(C(N)=O)c3F)n2)cc1 [Example 241, 2,6-Difluoro-3-[3-(4-methoxyphenyl)-1,2,4-oxadiazol-5-yl]methoxybenzenecarboxamide]	< 8	< 8	–	–	–	100	–	–
CCCCOC(=O)C=CCOc1ccc(F)c(C(N)=O)c1F [Example 180, Butyl 4-[3-(aminocarbonyl)-2,4-difluorophenoxy]-2-butenoate]	< 8	16 to 64 (≈ 51.1 to 204 µM)	< 40	–	–	–	–	–
NC(=O)c1c(F)ccc(OCc2nc(-c3ccc(Cl)cc3)no2)c1F [Example 246, 3-[3-(4-Chlorophenyl)-1,2,4-oxadiazol-5-yl]methoxy-2,6-difluorobenzenecarboxamide]	< 8	< 8	–	< 8	< 8	100	< 8	< 8
Cc1cccc2sc(COc3ccc(F)c(C(N)=O)c3F)nc12 [Example 228, 2,6-Difluoro-3-[(4-methyl-1,3-benzothiazol-2-yl)methoxy]benzenecarboxamide]	< 8	16 to 64 (≈ 47.9 to 191 µM)	201 to 202	–	–	–	–	–
CCCCCCOc1c(F)cc(F)c(C(N)=O)c1F [Example 79, 2,4,6-Trifluoro-3-(hexyloxy)benzenecarboxamide]	16 to 64 (≈ 58.1 to 232 µM)	16 to 64 (≈ 58.1 to 232 µM)	89 to 90	–	–	–	–	–
C#CCCCCCCCCCCOc1cccc(C(N)=O)c1 [Example 66, 3-(11-Dodecynyloxy)benzenecarboxamide]	< 8	< 8	106 to 108	–	–	–	–	–
Cc1ccc(-c2noc(COc3ccc(F)c(C(N)=O)c3F)n2)cc1 [Example 247, 2,6-Difluoro-3-[3-(4-methylphenyl)-1,2,4-oxadiazol-5-yl]methoxybenzenecarboxamide]	< 8	< 8	–	–	–	100	–	–
NC(=O)c1c(F)ccc(OCc2ccc3ccccc3n2)c1F [Example 200, 2,6-Difluoro-3-(2-quinolinylmethoxy)benzenecarboxamide]	< 8	16 to 64 (≈ 50.9 to 204 µM)	216 to 218	–	–	–	–	–
NC(=O)c1c(F)ccc(OCc2nc(-c3ccc(O)cc3)no2)c1F [Example 242, 2,6-Difluoro-3-[3-(4-hydroxyphenyl)-1,2,4-oxadiazol-5-yl]methoxybenzenecarboxamide]	< 8	< 8	209 to 210	–	–	–	< 8	< 8
NC(=O)c1c(F)ccc(OCc2nc(-c3ccc(Cl)cc3)cs2)c1F [Example 106, 3-[4-(4-Chloro-phenyl)-thiazol-2-ylmethoxy]2,6-difluoro-benzamide]	< 8	< 8	–	< 8	< 8	100	< 8	< 8
Cc1cncc(COc2cccc(C(N)=O)c2)c1 [Example 170, 3-[(5-Methyl-3-pyridinyl)methoxy]benzenecarboxamide]	> 64	> 64	152 to 154	–	–	–	–	–
CCCC/C=C\CCCCOc1cccc(C(N)=O)c1 [Example 45, 3-[(Z)-5-Decenyloxy]benzenecarboxamide]	< 8	< 8	98 to 100	–	–	–	–	–
CCCCCCOC(=O)COc1ccc(F)c(C(N)=O)c1F [Example 89, Hexyl 2-[3-(aminocarbonyl)-2,4-difluorophenoxy]acetate]	< 8	< 8	108	–	–	–	–	–
NC(=O)c1c(F)ccc(OCc2nc3ccc(Cl)cc3s2)c1F [Example 227, 3-[(6-Chloro-1,3-benzothiazol-2-yl)methoxy]-2,6-difluorobenzenecarboxamide]	< 8	< 8	190 to 191	–	–	–	–	–
NC(=O)c1c(F)ccc(OCc2nc3ccc(OC(F)(F)F)cc3s2)c1F [Example 230, 2,6-Difluoro-3-[6-(trifluoromethoxy)-1,3-benzothiazol-2-yl]methoxybenzenecarboxamide]	< 8	< 8	174 to 175	–	–	–	–	–
C#CCCCCCCOC(=O)COc1ccc(F)c(C(N)=O)c1F [Example 90, 7-Octynyl 2-[3-(aminocarbonyl)-2,4-difluorophenoxy]acetate]	< 8	< 8	130 to 132	–	–	–	–	–
NC(=O)c1c(F)ccc(OCc2nc3cc(-c4ccncc4)ccc3s2)c1F [Example 232, 2,6-Difluoro-3-[5-(4-pyridinyl)-1,3-benzothiazol-2-yl]methoxybenzenecarboxamide]	16 to 64 (≈ 40.3 to 161 µM)	< 8	255 to 258	–	–	–	–	–
